Data taken from patent US10683334B2 (INDIANA UNIVERSITY RESEARCH AND TECHNOLOGY CORPORATION, priority 2016, dated 2020).

Experiments:
glucagon receptor = glucagon receptor (Homo sapiens, UniProt P47871); test: Luciferase-based glucagon assay (cAMP reporter, HEK293 cells); settings: for EC50: read-out: EC50 [nM] (SDV), SDV in brackets; for % bioactivity of GCG: relative to native glucagon
Method: At the end of the incubation 100 microliters of LucLite luminescence substrate reagent (Perkin-Elmer, Wellesley, Mass.) were added to each well. […] The luminescent light output indicates activation of the luciferase reporter gene, which in turn is a measure of the activation of the receptor.

physchem = settings: for solubility at 1 h: pH 7.4
Method: 1 or 5 mg of pre-lyophilized peptide in 2 mL Eppendorf tube was treated with 200-400 uL of phosphate buffer (PBS: 50 mM sodium phosphate, 150 mM of sodium chloride, pH7.4). Samples were then vortexed and sonicated for 10 min then equilibrated at RT for 1H, and then centrifuged at 10 krpms for 10 min Concentration of the peptides in obtained supernatant was determined by measuring UV absorbance at λ=280 nm. […] Concentration in aliquots was reassessed as previously with UV absorbance. Change in peptide concentration was evaluated after 48 h and 7 days of storage at 4° C.

hGLP-1R = hGLP-1R (Homo sapiens, UniProt P43220); test: cAMP luciferase reporter assay, activity at the GLP-1 receptor (Table 3)
Sequence of hGLP-1R (P43220 24-463): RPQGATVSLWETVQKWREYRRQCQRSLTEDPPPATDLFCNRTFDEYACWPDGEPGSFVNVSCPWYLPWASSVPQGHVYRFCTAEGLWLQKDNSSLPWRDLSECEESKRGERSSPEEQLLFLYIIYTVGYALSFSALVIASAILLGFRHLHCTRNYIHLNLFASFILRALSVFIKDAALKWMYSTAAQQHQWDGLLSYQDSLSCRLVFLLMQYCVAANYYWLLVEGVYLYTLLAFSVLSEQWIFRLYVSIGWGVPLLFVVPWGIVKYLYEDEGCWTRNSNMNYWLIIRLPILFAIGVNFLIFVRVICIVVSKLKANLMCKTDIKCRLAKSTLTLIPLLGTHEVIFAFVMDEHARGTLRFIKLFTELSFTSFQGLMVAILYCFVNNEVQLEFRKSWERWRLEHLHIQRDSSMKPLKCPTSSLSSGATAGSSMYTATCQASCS

[1] = luciferase-based glucagon assay

Sequence of glucagon receptor (P47871 26-477): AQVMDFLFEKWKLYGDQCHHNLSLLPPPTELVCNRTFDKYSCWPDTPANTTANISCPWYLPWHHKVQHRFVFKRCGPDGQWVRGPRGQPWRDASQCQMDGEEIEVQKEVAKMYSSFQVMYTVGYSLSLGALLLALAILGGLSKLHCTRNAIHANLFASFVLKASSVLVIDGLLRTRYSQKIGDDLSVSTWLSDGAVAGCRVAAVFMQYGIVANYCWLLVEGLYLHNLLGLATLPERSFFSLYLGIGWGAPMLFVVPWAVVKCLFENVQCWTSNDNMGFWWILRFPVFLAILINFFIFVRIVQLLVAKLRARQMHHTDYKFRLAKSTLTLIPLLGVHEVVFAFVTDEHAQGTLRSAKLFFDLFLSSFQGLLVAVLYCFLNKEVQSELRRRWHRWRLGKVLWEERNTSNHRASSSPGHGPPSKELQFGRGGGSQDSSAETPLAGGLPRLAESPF

EC50 (hGLP-1R) [nM] | Compound | EC50 (glucagon receptor; [1]) [nM] | % bioactivity of GCG (glucagon receptor) [%] | solubility at 1 h (physchem) [µg/mL] | in vitro efficacy / potency (in words) (glucagon receptor; [1]) | solubility (physchem; pH 7) [µg/mL]
– | CSCC[C@H](NC(=O)[C@H](CC(C)C)NC(=O)[C@H](Cc1c[nH]c2ccccc12)NC(=O)[C@H](CCC(N)=O)NC(=O)[C@@H](NC(=O)[C@H](Cc1ccccc1)NC(=O)[C@H](CC(=O)O)NC(=O)[C@H](CCC(N)=O)NC(=O)[C@H](C)NC(=O)[C@H](CCCNC(=N)N)NC(=O)[C@H](CCCNC(=N)N)NC(=O)C(C)(C)NC(=O)[C@H](CC(=O)O)NC(=O)[C@H](CC(C)C)NC(=O)[C@H](Cc1ccncc1)NC(=O)[C@H](CCCCN)NC(=O)[C@H](CO)NC(=O)[C@H](Cc1ccncc1)NC(=O)[C@H](CC(=O)O)NC(=O)[C@H](CO)NC(=O)[C@@H](NC(=O)[C@H](Cc1ccncc1)NC(=O)[C@@H](NC(=O)CNC(=O)[C@H](CCC(N)=O)NC(=O)[C@H](CO)NC(=O)[C@@H](N)Cc1c[nH]cn1)[C@@H](C)O)[C@@H](C)O)C(C)C)C(=O)N[C@@H](CC(N)=O)C(=O)N[C@H](C(=O)O)[C@@H](C)O [Compound 10, HSQGTUTSDUSKULDZRRAQDFVQWLMNT] | 0.0843 | 24 | > 10000 | – | –
– | CSCC[C@H](NC(=O)[C@H](CC(C)C)NC(=O)[C@H](Cc1c[nH]c2ccccc12)NC(=O)[C@H](CCC(N)=O)NC(=O)[C@@H](NC(=O)[C@H](Cc1ccccc1)NC(=O)[C@H](CC(=O)O)NC(=O)[C@H](CCC(N)=O)NC(=O)[C@H](C)NC(=O)[C@H](CCCNC(=N)N)NC(=O)[C@H](CCCNC(=N)N)NC(=O)C(C)(C)NC(=O)[C@H](CC(=O)O)NC(=O)[C@H](CC(C)C)NC(=O)[C@H](Cc1ccc(O)cc1)NC(=O)[C@H](CCCCN)NC(=O)[C@H](CO)NC(=O)[C@H](Cc1ccc(O)cc1)NC(=O)[C@H](CC(=O)O)NC(=O)[C@H](CO)NC(=O)[C@@H](NC(=O)[C@H](Cc1cccnc1)NC(=O)[C@@H](NC(=O)CNC(=O)[C@H](CCC(N)=O)NC(=O)[C@H](CO)NC(=O)[C@@H](N)Cc1c[nH]cn1)[C@@H](C)O)[C@@H](C)O)C(C)C)C(=O)N[C@@H](CC(N)=O)C(=O)N[C@H](C(=O)O)[C@@H](C)O [Compound 3, HSQGTXTSDYSKYLDZRRAQDFVQWLMNT] | 0.017 | 119 | > 1000 | – | –
– | CSCC[C@H](NC(=O)[C@H](CC(C)C)NC(=O)[C@H](Cc1c[nH]c2ccccc12)NC(=O)[C@H](CCC(N)=O)NC(=O)[C@@H](NC(=O)[C@H](Cc1ccccc1)NC(=O)[C@H](CC(=O)O)NC(=O)[C@H](CCC(N)=O)NC(=O)[C@H](C)NC(=O)[C@H](CCCNC(=N)N)NC(=O)[C@H](CCCNC(=N)N)NC(=O)C(C)(C)NC(=O)[C@H](CC(=O)O)NC(=O)[C@H](CC(C)C)NC(=O)[C@H](Cc1ccncc1)NC(=O)[C@H](CCCCN)NC(=O)[C@H](CO)NC(=O)[C@H](Cc1ccncc1)NC(=O)[C@H](CC(=O)O)NC(=O)[C@H](CO)NC(=O)[C@@H](NC(=O)[C@H](Cc1ccccc1)NC(=O)[C@@H](NC(=O)CNC(=O)[C@H](CCC(N)=O)NC(=O)[C@H](CO)NC(=O)[C@@H](N)Cc1c[nH]cn1)[C@@H](C)O)[C@@H](C)O)C(C)C)C(=O)N[C@@H](CC(N)=O)C(=O)N[C@H](C(=O)O)[C@@H](C)O [Compound 8, HSQGTFTSDUSKULDZRRAQDFVQWLMNT] | 0.0309 | 66 | > 10000 | – | –
> 10 | CSCC[C@H](NC(=O)[C@H](CC(C)C)NC(=O)[C@H](Cc1c[nH]c2ccccc12)NC(=O)[C@H](CCC(N)=O)NC(=O)[C@@H](NC(=O)[C@H](Cc1ccccc1)NC(=O)[C@H](CC(=O)O)NC(=O)[C@@H](CCC(N)=O)NC(=O)[C@H](C)NC(=O)[C@H](CCCNC(=N)N)NC(=O)[C@H](CCCNC(=N)N)NC(=O)C(C)(C)NC(=O)[C@H](CC(=O)O)NC(=O)[C@H](CC(C)C)NC(=O)[C@H](Cc1ccc(O)cc1)NC(=O)[C@H](CCCCN)NC(=O)[C@H](CO)NC(=O)[C@H](Cc1cccnc1)NC(=O)[C@H](CC(=O)O)NC(=O)[C@H](CO)NC(=O)[C@@H](NC(=O)[C@H](Cc1ccccc1)NC(=O)[C@@H](NC(=O)CNC(=O)[C@H](CCC(N)=O)NC(=O)[C@H](CO)NC(=O)[C@@H](N)Cc1c[nH]cn1)[C@@H](C)O)[C@@H](C)O)C(C)C)C(=O)N[C@@H](CC(N)=O)C(=O)N[C@H](C(=O)O)[C@@H](C)O [SEQ ID NO: 971, 3-Pal10, Aib16, q20] | – | – | – | – | –
– | CSCC[C@H](NC(=O)[C@H](CC(C)C)NC(=O)[C@H](Cc1c[nH]c2ccccc12)NC(=O)[C@H](CCC(N)=O)NC(=O)[C@@H](NC(=O)[C@H](Cc1ccccc1)NC(=O)[C@H](CC(=O)O)NC(=O)[C@H](CCC(N)=O)NC(=O)[C@H](C)NC(=O)[C@H](CCCNC(=N)N)NC(=O)[C@H](CCCNC(=N)N)NC(=O)C(C)(C)NC(=O)[C@H](CC(=O)O)NC(=O)[C@H](CC(C)C)NC(=O)[C@H](Cc1ccncc1)NC(=O)[C@H](CCCCN)NC(=O)[C@H](CO)NC(=O)[C@H](Cc1ccc(O)cc1)NC(=O)[C@H](CC(=O)O)NC(=O)[C@H](CO)NC(=O)[C@@H](NC(=O)[C@H](Cc1ccccc1)NC(=O)[C@@H](NC(=O)CNC(=O)[C@H](CCC(N)=O)NC(=O)[C@H](CO)NC(=O)[C@@H](N)Cc1c[nH]cn1)[C@@H](C)O)[C@@H](C)O)C(C)C)C(=O)N[C@@H](CC(N)=O)C(=O)N[C@H](C(=O)O)[C@@H](C)O [Compound 6, HSQGTFTSDYSKULDZRRAQDFVQWLMNT] | 0.0339 | 60 | > 1000 | – | –
– | CSCC[C@H](NC(=O)[C@H](CC(C)C)NC(=O)[C@H](Cc1c[nH]c2ccccc12)NC(=O)[C@H](CCC(N)=O)NC(=O)[C@@H](NC(=O)[C@H](Cc1ccccc1)NC(=O)[C@H](CC(=O)O)NC(=O)[C@H](CCC(N)=O)NC(=O)[C@H](C)NC(=O)[C@H](CCCNC(=N)N)NC(=O)[C@H](CCCNC(=N)N)NC(=O)C(C)(C)NC(=O)[C@H](CC(=O)O)NC(=O)[C@H](CC(C)C)NC(=O)[C@H](Cc1cccnc1)NC(=O)[C@H](CCCCN)NC(=O)[C@H](CO)NC(=O)[C@H](Cc1cccnc1)NC(=O)[C@H](CC(=O)O)NC(=O)[C@H](CO)NC(=O)[C@@H](NC(=O)[C@H](Cc1ccccc1)NC(=O)[C@@H](NC(=O)CNC(=O)[C@H](CCC(N)=O)NC(=O)[C@H](CO)NC(=O)[C@@H](N)Cc1c[nH]cn1)[C@@H](C)O)[C@@H](C)O)C(C)C)C(=O)N[C@@H](CC(N)=O)C(=O)N[C@H](C(=O)O)[C@@H](C)O [Compound 7, HSQGTFTSDXSKXLDZRRAQDFVQWLMNT] | 0.0359 | 57 | > 10000 | fully potent | > 10000
– | CSCC[C@H](NC(=O)[C@H](CC(C)C)NC(=O)[C@H](Cc1c[nH]c2ccccc12)NC(=O)[C@H](CCC(N)=O)NC(=O)[C@@H](NC(=O)[C@H](Cc1ccccc1)NC(=O)[C@H](CC(=O)O)NC(=O)[C@H](CCC(N)=O)NC(=O)[C@H](C)NC(=O)[C@H](CCCNC(=N)N)NC(=O)[C@H](CCCNC(=N)N)NC(=O)C(C)(C)NC(=O)[C@H](CC(=O)O)NC(=O)[C@H](CC(C)C)NC(=O)[C@H](Cc1cccnc1)NC(=O)[C@H](CCCCN)NC(=O)[C@H](CO)NC(=O)[C@H](Cc1ccc(O)cc1)NC(=O)[C@H](CC(=O)O)NC(=O)[C@H](CO)NC(=O)[C@@H](NC(=O)[C@H](Cc1ccccc1)NC(=O)[C@@H](NC(=O)CNC(=O)[C@H](CCC(N)=O)NC(=O)[C@H](CO)NC(=O)[C@@H](N)Cc1c[nH]cn1)[C@@H](C)O)[C@@H](C)O)C(C)C)C(=O)N[C@@H](CC(N)=O)C(=O)N[C@H](C(=O)O)[C@@H](C)O [Compound 5, HSQGTFTSDYSKXLDZRRAQDFVQWLMNT] | 0.0379 | 54 | > 1000 | – | –
